Data taken from PubChem BioAssay (NCI).
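Cultured in 96-well plates, cells were exposed to test compound for 48 hours across five concentrations. TGI: concentration producing complete growth inhibition.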

Tests used:
Assay in all cases: DTP human tumour cell line panel, 48 h
IGROV1 ovarian = test system: IGROV1 ovarian
NCI-H23 lung = test system: NCI-H23 lung
NCI-H226 lung = test system: NCI-H226 lung
COLO 205 colon = test system: COLO 205 colon
MOLT-4 leukemia = test system: MOLT-4 leukemia
UACC-62 melanoma = test system: UACC-62 melanoma
NCI-H522 lung = test system: NCI-H522 lung
SW-620 colon = test system: SW-620 colon
HS 578T breast = test system: HS 578T breast
HL-60(TB) leukemia = test system: HL-60(TB) leukemia
MDA-MB-435 = test system: MDA-MB-435
RXF 393 renal = test system: RXF 393 renal
SNB-75 CNS = test system: SNB-75 CNS
UACC-257 melanoma = test system: UACC-257 melanoma
A498 renal = test system: A498 renal
DU-145 prostate = test system: DU-145 prostate
HCT-116 colon = test system: HCT-116 colon
BT-549 breast = test system: BT-549 breast
SK-MEL-2 melanoma = test system: SK-MEL-2 melanoma
TK-10 renal = test system: TK-10 renal
RPMI-8226 leukemia = test system: RPMI-8226 leukemia
M14 melanoma = test system: M14 melanoma
PC-3 prostate = test system: PC-3 prostate
U251 CNS = test system: U251 CNS
ACHN renal = test system: ACHN renal
NCI-H460 lung = test system: NCI-H460 lung
SN12C renal = test system: SN12C renal
NCI/ADR-RES ovarian = test system: NCI/ADR-RES ovarian
SK-MEL-28 melanoma = test system: SK-MEL-28 melanoma
CAKI-1 renal = test system: CAKI-1 renal
UO-31 renal = test system: UO-31 renal
KM12 colon = test system: KM12 colon
EKVX NSCLC = test system: EKVX NSCLC
LOX IMVI melanoma = test system: LOX IMVI melanoma
SF-539 CNS = test system: SF-539 CNS
OVCAR-5 ovarian = test system: OVCAR-5 ovarian
SF-268 CNS = test system: SF-268 CNS
MALME-3M melanoma = test system: MALME-3M melanoma
786-0 renal = test system: 786-0 renal
HT29 colon = test system: HT29 colon
K-562 leukemia = test system: K-562 leukemia
CCRF-CEM leukemia = test system: CCRF-CEM leukemia
SK-MEL-5 melanoma = test system: SK-MEL-5 melanoma
SNB-19 CNS = test system: SNB-19 CNS
OVCAR-8 ovarian = test system: OVCAR-8 ovarian
A549 NSCLC = test system: A549 NSCLC
SR leukemia = test system: SR leukemia
MDA-MB-231 breast = test system: MDA-MB-231 breast
SK-OV-3 ovarian = test system: SK-OV-3 ovarian
SF-295 CNS = test system: SF-295 CNS
OVCAR-3 ovarian = test system: OVCAR-3 ovarian
HCT-15 colon = test system: HCT-15 colon
HCC-2998 colon = test system: HCC-2998 colon
MDA-N = test system: MDA-N
MCF7 breast = test system: MCF7 breast
HOP-62 NSCLC = test system: HOP-62 NSCLC

## CCN(CC)C(=S)Nc1ccc(-c2cc3ccc(O)cc3oc2=O)cc1
IGROV1 ovarian
  TGI: > 100 µM
NCI-H23 lung
  TGI: > 100 µM
NCI-H226 lung
  TGI: 99.5 µM
COLO 205 colon
  TGI: > 100 µM
MOLT-4 leukemia
  TGI: > 100 µM
UACC-62 melanoma
  TGI: > 100 µM
NCI-H522 lung
  TGI: 43.7 µM
SW-620 colon
  TGI: > 100 µM
HS 578T breast
  TGI: 71.6 µM
HL-60(TB) leukemia
  TGI: 23.2 µM
MDA-MB-435
  TGI: > 100 µM
RXF 393 renal
  TGI: > 100 µM
SNB-75 CNS
  TGI: > 100 µM
UACC-257 melanoma
  TGI: 48.4 µM
A498 renal
  TGI: 96.5 µM
DU-145 prostate
  TGI: > 100 µM
HCT-116 colon
  TGI: > 100 µM
BT-549 breast
  TGI: 85 µM
SK-MEL-2 melanoma
  TGI: 49.3 µM
TK-10 renal
  TGI: > 100 µM
RPMI-8226 leukemia
  TGI: 95.8 µM
M14 melanoma
  TGI: > 100 µM
PC-3 prostate
  TGI: > 100 µM
U251 CNS
  TGI: 85.1 µM
ACHN renal
  TGI: > 100 µM
NCI-H460 lung
  TGI: > 100 µM
SN12C renal
  TGI: > 100 µM
NCI/ADR-RES ovarian
  TGI: 81.9 µM
SK-MEL-28 melanoma
  TGI: > 100 µM
CAKI-1 renal
  TGI: > 100 µM
UO-31 renal
  TGI: > 100 µM
KM12 colon
  TGI: > 100 µM
EKVX NSCLC
  TGI: > 100 µM
LOX IMVI melanoma
  TGI: > 100 µM
SF-539 CNS
  TGI: > 100 µM
OVCAR-5 ovarian
  TGI: 79.5 µM
SF-268 CNS
  TGI: > 100 µM
MALME-3M melanoma
  TGI: 69.2 µM
786-0 renal
  TGI: > 100 µM
HT29 colon
  TGI: 30.4 µM
K-562 leukemia
  TGI: > 100 µM
CCRF-CEM leukemia
  TGI: > 100 µM
SK-MEL-5 melanoma
  TGI: 48.8 µM
SNB-19 CNS
  TGI: > 100 µM
OVCAR-8 ovarian
  TGI: > 100 µM
A549 NSCLC
  TGI: > 100 µM
SR leukemia
  TGI: 93.5 µM
MDA-MB-231 breast
  TGI: > 100 µM
SK-OV-3 ovarian
  TGI: > 100 µM
SF-295 CNS
  TGI: > 100 µM
OVCAR-3 ovarian
  TGI: 78.3 µM
HCT-15 colon
  TGI: 67.6 µM
HCC-2998 colon
  TGI: 39.8 µM
MDA-N
  TGI: > 100 µM

## CC(=O)OC1C(C)OC(OC(=O)C2CCC3C(C2)OC2(CC(OC(=O)/C=C/c4ccccc4)C(C)CO2)C32CO2)C(OC2OC(C)C(O)C(OC(C)=O)C2O)C1O (centres undefined)
IGROV1 ovarian
  TGI: < 0.01 µM
MCF7 breast
  TGI: > 100 µM
NCI-H23 lung
  TGI: < 0.01 µM
NCI-H226 lung
  TGI: < 0.01 µM
COLO 205 colon
  TGI: > 100 µM
MOLT-4 leukemia
  TGI: < 0.01 µM
UACC-62 melanoma
  TGI: < 0.01 µM
HS 578T breast
  TGI: < 0.01 µM
HOP-62 NSCLC
  TGI: > 100 µM
MDA-MB-435
  TGI: < 0.01 µM
RXF 393 renal
  TGI: < 0.0434 µM
SNB-75 CNS
  TGI: < 0.01 µM
UACC-257 melanoma
  TGI: < 0.0137 µM
A498 renal
  TGI: 0.286 µM
DU-145 prostate
  TGI: 0.0213 µM
BT-549 breast
  TGI: < 0.0335 µM
SK-MEL-2 melanoma
  TGI: < 0.01 µM
TK-10 renal
  TGI: > 100 µM
RPMI-8226 leukemia
  TGI: < 0.01 µM
M14 melanoma
  TGI: 0.104 µM
PC-3 prostate
  TGI: 0.0402 µM
U251 CNS
  TGI: < 0.01 µM
ACHN renal
  TGI: 1.19 µM
NCI-H460 lung
  TGI: < 0.0125 µM
SN12C renal
  TGI: < 0.01 µM
UO-31 renal
  TGI: 2.96 µM
KM12 colon
  TGI: < 0.0123 µM
EKVX NSCLC
  TGI: 1.27 µM
LOX IMVI melanoma
  TGI: < 0.01 µM
OVCAR-5 ovarian
  TGI: 0.0407 µM
SF-268 CNS
  TGI: < 0.0136 µM
MALME-3M melanoma
  TGI: < 0.01 µM
HT29 colon
  TGI: < 0.01 µM
K-562 leukemia
  TGI: > 100 µM
SK-MEL-5 melanoma
  TGI: 0.165 µM
SK-OV-3 ovarian
  TGI: > 100 µM
SF-295 CNS
  TGI: < 0.0304 µM
HCT-15 colon
  TGI: 5.8 µM
HCC-2998 colon
  TGI: < 0.01 µM
MDA-N
  TGI: < 0.01 µM
